From US12532889B2, “Herbicidal compositions comprising glufosinate” (BASF SE, priority 2023, dated 2026)

Test system: ELEIN (Eleusine indica)
Assay: Post-emergence application in field trials (Example A)
Format: in vivo
Method: In the examples below, using the method of S. R. Colby (1967) “Calculating synergistic and antagonistic responses of herbicide combinations”, Weeds 15, p. 22ff., the value E, which is expected if the activity of the individual active compounds is only additive, was calculated:
[formula] • where • X=percent activity using active herbicide A at an application rate a; • Y=percent activity using active herbicide B (e.g. glufosinate) at an application rate b; • E=expected activity (in %) by A+B at application rates a+b.
If the value found experimentally is higher than the value E calculated according to Colby, a synergistic effect is present.
On field test sites, natural weed infestation or seeded weeds were treated post-emergence of the weeds.
In the field trials, the weeds were treated as indicated below.
In the following experiments, the herbicidal activity for the individual herbicidal compositions (solo and mixture applications) was assessed at the indicated days after treatment (DAT). The assessments for the damage on undesired weeds caused by the composition was carried out using a scale from 0 to 100%, compared to the untreated control plants. Here, 0 means no damage and 100 means complete destruction of the plants.
Post-emergence application of Herbicide A-1 (A-1) and glufosinate ammonium (B-2) in Field Trials:
Herbicide A-1 (50 g/l), glufosinate ammonium (200 g/l) and optional herbicide C were, together with addition of 0.5% v/v MSO (methylated seed oil) as adjuvant, formulated in water as distribution medium as indicated and sprayed with commercial flat fan nozzles.

[1] = Table 1.10, ELEIN growth stage 23-25, height 3-5 cm, A-1 25, B-2 400 g ai/ha, 20 DAT, water 200 l/ha
[2] = Table 1.14, ELEIN growth stage 24, A-1 25, B-2 400 g ai/ha, 21 DAT, water 100 l/ha
[3] = Table 1.15, ELEIN height 25 cm, A-1 25, B-2 400 g ai/ha, 21 DAT, water 100 l/ha
[4] = Table 1.15, ELEIN height 25 cm, A-1 50, B-2 400 g ai/ha, 21 DAT, water 100 l/ha
[5] = Table 1.18, ELEIN growth stage 24, A-1 25, B-2 400 g ai/ha, 21 DAT, water 200 l/ha
[6] = Table 1.18, ELEIN growth stage 24, A-1 50, B-2 400 g ai/ha, 21 DAT, water 200 l/ha
[7] = Table 1.21, ELEIN growth stage 24, A-1 25, B-2 400 g ai/ha, 21 DAT, water 200 l/ha
[8] = Table 1.21, ELEIN growth stage 24, A-1 50, B-2 400 g ai/ha, 21 DAT, water 200 l/ha
[9] = Table 1.4, ELEIN growth stage 24, A-1 50, B-2 400 g ai/ha, 14 DAT, water 200 l/ha
[10] = Table 1.9, ELEIN growth stage 23-25, height 3-5 cm, A-1 25, B-2 400 g ai/ha, 20 DAT, water 100 l/ha

SMILES | % herbicidal activity [1] | % herbicidal activity (Table 1.1, ELEIN growth stage 24, A-1 solo 25 g ai/ha, 14 DAT, water volume 100 l/ha, 0.5% v/v MSO) | % herbicidal activity [2] | % herbicidal activity [3] | % herbicidal activity [4] | % herbicidal activity [5] | % herbicidal activity [6] | % herbicidal activity [7] | % herbicidal activity [8] | % herbicidal activity [9] | % herbicidal activity [10] | % herbicidal activity (Table 1.1, ELEIN growth stage 24, B-2 solo 400 g ai/ha, 14 DAT, water volume 100 l/ha, 0.5% v/v MSO)
CCOC(=O)COc1ccccc1Oc1nc(-n2c(=O)cc(C(F)(F)F)n(C)c2=O)c(F)cc1Cl [A-1, ethyl 2-[2-[[3-chloro-5-fluoro-6-[3-methyl-2,6-dioxo-4-(trifluoromethyl)pyrimidin-1-yl]-2-pyridyl]oxy]phenoxy]acetate] | 82% | 75% | 58% | 50% | 60% | 67% | 82% | 68% | 73% | 88% | 91% | 
CP(=O)(O)CCC(N)C(=O)O (stereo not shown) [B-2, glufosinate-ammonium] | 35% |  | 0% | 10% | 10% | 0% | 0% | 0% | 0% | 18% | 20% | 12%
